Data published in paper PMC7606486, “CFAP45 deficiency causes situs abnormalities and asthenospermia by disrupting an axonemal adenine nucleotide homeostasis module” (Nature Communications, 2020).

Experiments:
[1] = biological target: T1, AK8 (Homo sapiens, UniProt Q96MA6); assay: AMP-agarose pull-down, anti-FLAG immunoblot; assay type: binding; settings: AMP immobilised on agarose, preferentially the αAH-AMP resin; 500 mM NaCl lysis buffer; labelled compound
T1 sequence (Q96MA6 1-479): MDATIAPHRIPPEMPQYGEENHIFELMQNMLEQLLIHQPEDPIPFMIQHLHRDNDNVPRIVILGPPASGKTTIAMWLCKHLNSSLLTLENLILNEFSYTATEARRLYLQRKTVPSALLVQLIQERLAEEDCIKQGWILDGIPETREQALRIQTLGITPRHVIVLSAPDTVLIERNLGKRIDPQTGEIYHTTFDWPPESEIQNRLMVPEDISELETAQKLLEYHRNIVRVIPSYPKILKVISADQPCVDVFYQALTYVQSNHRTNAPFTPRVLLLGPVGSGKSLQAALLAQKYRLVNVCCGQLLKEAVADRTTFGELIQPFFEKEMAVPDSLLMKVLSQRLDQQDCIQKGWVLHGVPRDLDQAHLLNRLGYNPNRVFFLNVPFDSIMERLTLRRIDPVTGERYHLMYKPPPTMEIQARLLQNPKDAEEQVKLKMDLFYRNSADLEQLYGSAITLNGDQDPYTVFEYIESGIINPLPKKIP

[2] = biological target: T2, CFAP45 (Homo sapiens, UniProt Q9UL16); assay: AMP-agarose pull-down, immunoblot or silver stain; assay type: binding; settings: AMP immobilised on agarose, best with the 6AH-AMP resin; sperm eluates released with 100 mM free 5'-AMP; 500 mM NaCl lysis buffer, pH 8.0, 4 °C; labelled compound
T2 construct: full length, 551 aa, 66 kDa
T2 sequence (Q9UL16 whole entry): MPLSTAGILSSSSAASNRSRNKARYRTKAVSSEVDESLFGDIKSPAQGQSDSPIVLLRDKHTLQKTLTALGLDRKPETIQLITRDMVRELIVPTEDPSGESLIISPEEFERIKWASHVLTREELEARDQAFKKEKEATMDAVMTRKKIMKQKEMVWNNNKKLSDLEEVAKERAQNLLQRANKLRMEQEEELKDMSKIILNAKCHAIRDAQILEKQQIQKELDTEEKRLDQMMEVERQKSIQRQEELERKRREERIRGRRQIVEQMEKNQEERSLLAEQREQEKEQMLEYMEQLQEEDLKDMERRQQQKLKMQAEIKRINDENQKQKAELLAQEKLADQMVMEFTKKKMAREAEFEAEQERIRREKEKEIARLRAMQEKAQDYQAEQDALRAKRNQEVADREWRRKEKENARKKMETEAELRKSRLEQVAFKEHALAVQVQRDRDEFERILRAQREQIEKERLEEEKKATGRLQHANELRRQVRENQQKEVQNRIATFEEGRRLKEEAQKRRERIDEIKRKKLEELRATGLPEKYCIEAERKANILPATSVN

Compound: Nc1ncnc2c1ncn2[C@@H]1O[C@H](COP(=O)(O)O)[C@@H](O)[C@H]1O [AMP]
- AMP-agarose pull-down, anti-FLAG immunoblot [1]: NTAP-AK8 shows affinity to αAH-AMP-agarose following elution and IB with monoclonal anti-FLAG antibody
- AMP-agarose pull-down, immunoblot or silver stain [2]: CFAP45 immunoprecipitates recovered from human sperm (see “Methods”) showed affinity to AMP, especially 6AH-AMP-agarose
